Experimental data from US20110059124A1, “THE QUALITY CONTROL METHOD AND APPLICATION OF A KIND OF GANODERMA LUCIDUM SPORE OIL FAT EMULSION” (Guangzhou Hanfang Natural Medicine Research & Development …, priority 2008, published 2011).
Marks after values point to notes of the source that are not given here. Ends that are not written are not given here.

Tests used:
Type in all cases: in vivo, ICR mice
[1] = test system: H22 tumor bearing mice; experiment: Delayed hypersensitivity (DNFB) in H22 tumor bearing mice; conditions: 0.42 mg/kg Sc once every other day
Excerpt: Experiment Treatment Effect of Ganoderma lucidium Spore Oil Fat Emulsion i.v. Dosage Influencing the Immunity Function of Specific Cells in H22 Tumor Bearing Mice
Take 50 ICR mice, inoculate with H22 solid tumor pursuant to the research method of transplantable tumor (take the tumor mass under sterile operation, then weigh, grinding with Glass tissue homogenizer, after homogeneity, put into sterile containers, then dilute with normal saline into cell suspension of 1:3, for each mouse, inoculate intracutaneously under the right armpit for 0.2 ml). On the second day, they are randomized into 5 groups, with 10 mice in each group, with half being males and half females, which are divided into: Intravenous Control Group ([…], Blank Group), High, Medium, Low Doasge Groups injected with Ganoderma lucidium spore oil fat emulsion (1, 0.5, 0.25 g/kg) iv administered, Thymosin a1 injection group (0.42 mg/kg) Sc administered; apart from that Thymosin a1 is administered once every other day, other groups are administered once daily, with 7 administration. On day 1 after dosage, hair is removed from the abdomen of each mouse, with an area of 3×3 cm^2. On day 2 after dosage, smear 1% of DNFB evenly on the abdomen of mice (DNFB is a kind of haptene, which after combination with cutaneous proteins could form holoantigen, that stimulate the T Lymphocytes to multiply into sensitized lymphocytes).

[2] = test system: normal mice; experiment: Toxicity reduction for chemotherapy (Cy) in normal mice; conditions: 0.42 mg/kg Sc once every other day + Cy 100 mg/kg ip
Experimental: Toxicity reducing Effect of Ganoderma lucidium Spore Oil Fat Emulsion i.v. Dosage for Chemotherapy (Cy) in Normal Mice
Experiment Method: Take 60 ICR mice, and randomize into 6 groups pursuant to body weight, with 10 animals in each group, half of which are females and half of which are males. […] Apart from that Thymosin a1 is administered once every other day, other groups are administered once daily, with a total dosage of 7 times. On day 4 and day 5 of the administration, apart from blank control, the other groups begin to be treated with ip.Cy (100 mg/kg), for two successive days, and the mice are sacrificed 24 hours after termination of dosage, weigh and collect blood from the orbit veins before sacrificing, microscopically examine the total number of peripheral blood leukocytes, at the same time dissect one complete femur, then determine the number of nucleated cells in the bone marrow, and remove the thymus gland and spleen for weighing, and calculate the coefficients of thymus glands and spleen organs, and carry out statistical treatment (t Test).

[3] = test system: H22 tumor bearing mice; experiment: Toxicity reduction for chemotherapy with cyclophosphamide (Cy) in H22 tumor bearing mice; conditions: 0.42 mg/kg Sc once every other day + Cy 100 mg/kg ip
Experimental: Toxicity Reduction Effect of Ganoderma lucidium Spore Oil Fat Emulsion i.v. Dosage for Chemotherapy with Cyclophosphamide (Cy) in H22 Tumor Bearing Mice
Experiment Method: Take 60 ICR mice, inoculate with H22 solid tumor, weigh 24 hours after inoculation, then randomize into 6 groups, with 10 animals in each group, half of which are females and half of which are males. […] Apart from that Thymosin a1 are dosed once every other day, the other groups are administered once daily, with a total dose of 7 times, on day 4 and day 5 of administration, apart from blank control, the other groups begin to be treated with ip.Cy (100 mg/kg), for two successive day, and the mice are sacrificed 24 hours after termination of dosage, weigh and collect blood from the orbit veins before sacrificing, microscopic examine the total number of peripheral blood leukocytes, at the same time dissect one complete femur, then determine the number of nucleated cells in the bone marrow, and remove the thymus gland and spleen for weighing, and calculate the coefficients of thymus glands and spleen organs, and carry out statistical treatment (t Test).

[4] = test system: H22 tumor bearing mice; experiment: Toxicity reduction for ^60Co radiation in H22 tumor bearing mice; conditions: ^60Co 500 rad, 0.42 mg/kg Sc once every other day
Experimental: Toxicity Reducing Effect of Ganoderma lucidium Spore Oil Fat Emulsion i.v. Dosage for Chemotherapy with ^60Co in H22 Tumor Bearing Mice
(§1) Experiment Method: Take 60 ICR mice, innoculate with H22 solid tumor pursuant to the research method for transplantable tumors, 24 hours after innoculation, apart from the 10 animals in blank control, the other 50 mice receive ^60Co radiation, with a dosage of 500 rad; after radiation with ^60Co, randomize the animals into 5 groups pursuant to body weight, with 10 animals in each group, half of which are females and half of which are males. […] Apart from that Thymosin a1 are dosed once every other day, the other groups are administered once daily, with a total dose of 7 times, and the mice are sacrificed 24 hours after termination of dosage, weigh and collect blood from the orbit veins before sacrificing, microscopically examine the total number of peripheral blood leukocytes, at the same time remove spleen, thymus gland and one complete femur, then determine the number of nucleated cells in bone marrow, and weigh the thymus gland and spleen, and calculate the coefficients of thymus glands and spleen organs, and carry out statistical treatment (t Test).

[5] = test system: H22 tumor bearing mice; experiment: Phagocytic activity of reticuloendothelial system (RES) in H22 tumor bearing mice; conditions: 0.42 mg/kg Sc once every other day
Experimental: Experiment Treatment Effect of Ganoderma lucidium Spore Oil Fat Emulsion i.v. Dosage Influencing the Phagocytic Activity of Reticuloendothelial System (RES) in H22 Tumor Bearing Mice.
Experiment Method: Take 50 ICR mice, inoculate with H22 solid tumor, randomize into 5 groups pursuant to body weight, with 10 animals in each group, half of which are females and half of which are males. […] Apart from that Thymosin a1 is administered once every other day, other groups are administered once daily, with a total dosage of 11 times. […] All the data obtained are statistically treated (t Test).

[6] = test system: normal mice; experiment: Toxicity reduction for ^60Co radiation in normal mice; conditions: ^60Co 500 rad, 0.42 mg/kg Sc once every other day
Experimental: Toxicity Reducing Effect of Ganoderma lucidium Spore Oil Fat Emulsion i.v . Dosage for Chemotherapy ^60Co in Normal Mice
as §1, with “mice,” for “mice, innoculate with H22 solid tumor pursuant to the research method for transplantable tumors, 24 hours after innoculation,”, “are radiated with ^60Co,” for “receive ^60Co radiation,”, “All groups of animals are dosed 24 hours after innoculation, apart” for “Apart”, “leukocytes;” for “leukocytes,”

Thymosin a1: Positive control drug Thymosin a1 injection, 0.42 mg/kg Sc (SDAAVDTSSEITTKDLKEKKEVVEEAEN; ends and bridges not checked; UniProt P06454 2-29, looked up)
Swelling Degree ([1]; 24 hours after DNFB attack): 13.50 ± 3.44 mg | Swelling Rate ([1]; 24 hours after DNFB attack): 89.12 ± 19.76 % | Body Weight After Dosage ([1]; in g): 25.10 ± 2.18 | Body Weight Before Dosage ([1]; in g): 19.30 ± 1.34 | Body Weight After Dosage [2]: 22.90 ± 2.18 g | Body Weight Before Dosage [2]: 19.60 ± 1.26 g | Spleen Coefficient [2]: 0.36 ± 0.10 g/100 g | The number of nucleated cells in bone marrow [2]: 75.43 ± 13.32* 10^5/piece | Thymus Gland Coefficient [2]: 0.18 ± 0.03 g/100 g | WBC [2]: 2.04 ± 0.41* 10^9/L | Body Weight After Dosage [3]: 23.60 ± 2.27 g | Body Weight Before Dosage [3]: 19.70 ± 1.57 g | Spleen Coefficient [3]: 0.64 ± 0.21 g/100 g | The number of nucleated cells in bone marrow [3]: 73.31 ± 15.99* 10^5/piece | Thymus Gland Coefficient [3]: 0.12 ± 0.04 g/100 g | WBC [3]: 2.03 ± 0.44* 10^9/L | Body Weight After Dosage [4]: 24.20 ± 2.25 g | Body Weight Before Dosage [4]: 19.60 ± 1.51 g | Spleen Coefficient [4]: 0.33 ± 0.04 g/100 g | The number of nucleated cells in bone marrow [4]: 82.71 ± 13.58* 10^5/piece | Thymus Gland Coefficient [4]: 0.17 ± 0.07 g/100 g | WBC [4]: 1.98 ± 0.31* 10^9/L | Clearance Index K [5]: 0.09 ± 0.02 | Liver Coefficient [5]: 6.91 ± 1.08 g/100 g | Phagocytic Coefficient α [5]: 5.71 ± 0.76 | Spleen Coefficient [5]: 1.16 ± 0.44 g/100 g | Thymus Gland Coefficient [5]: 0.33 ± 0.11 g/100 g | Body Weight After Dosage [6]: 23.30 ± 2.11 g | Body Weight Before Dosage [6]: 19.90 ± 1.66 g | Spleen Coefficient [6]: 0.31 ± 0.14 g/100 g | The number of nucleated cells in bone marrow [6]: 67.83 ± 13.09* 10^5/piece | Thymus Gland Coefficient [6]: 0.14 ± 0.05 g/100 g | WBC [6]: 1.21 ± 0.38* 10^9/L
